The source of these data is PMC12406256, “Food Additives Inhibit Intestinal Drug Transporters but Have Limited Effect on In Vitro Drug Permeability” (Molecular Pharmaceutics, 2025).

As usually defined, the IC50 is the concentration at which inhibition is half-maximal.

SMILES strings stand for the structures. Like-named read-outs stand apart in the source and are kept apart here.

Data set [1] concerns Caco-2 cells. The experiment in a line: in vitro. The conditions noted are these: Caco-2. How it is done:
Caco-2 cells were cultured on 12-well Transwell polycarbonate membrane inserts with a 0.4 μm pore size (Corning Incorporated, Kennebunk, ME) at 37 °C and 5% CO2 for 21–24 days prior to the experiment as described in Hubatsch et al. The culture medium (DMEM, 10% FBS, 1% MEM nonessential amino acids, 100 U/mL penicillin–streptomycin) was changed every second day. Transepithelial electrical resistance (TEER) was measured before and after the permeability assay with a Millicell-ERS electrode (Millipore, Bedford, MA) attached to an epithelial volt ohm meter (EVOM, World Precision Instruments, Sarasota, FL). The permeability assay was performed according to a previously published protocol. […] Sulfasalazine is a substrate of BCRP and OATP2B1. , The DMSO concentration was 0.45–1.5%. Before the experiment, inserts were washed and preincubated in the transport buffer for 20 min shaking at 37 °C. Sulfasalazine and LY permeability was measured in the apical to basolateral direction at five time points (20, 40, 60, 90, and 120 min) and, additionally, in the basolateral to apical direction to calculate the efflux ratio. […] […] LY (250 μM) was added on the donor side of all inserts to measure the integrity of the cell monolayer. Before analysis, samples were centrifuged at 2755g for 30 min, and donor solution and mass balance samples were diluted 1:100. LY fluorescence was measured with a Varioskan LUX microplate reader (Thermo Fisher Scientific) at 430 nm excitation and 538 nm emission. Sulfasalazine was analyzed with ultra-performance liquid chromatography (UPLC) using a Syncronis C18 column (1.7 μm particle size, 50 × 2.1 mm + 0.2 μm Waters online filter) (Thermo Fisher Scientific) coupled with Waters Acquity UPLC interfaced with a PDA detector both controlled by the Waters Empower software version 3. The UPLC was operated in gradient mode at 354 nm. Solvents were 0.015 M phosphate buffer pH 2 (A), acetonitrile (B), 1:1 acetonitrile/methanol (strong needle wash), and 20% acetonitrile (weak needle wash). Column temperature was 30 °C, injection volume was 10 μL, retention time was 1.46 min, and flow rate was 0.5 mL/min. The gradient was 25% B → 70% B (0–3 min), 70% B → 25% B (3.00–3.01 min), and 25% B (3.01–4 min). The data were collected for the first 180 s of each UPLC run.
In the Caco-2 permeability assay, the apparent permeability (P app) of sulfasalazine was calculated using the following equation: Papp=(dQ/dt)(1/A×C0) where dQ/dt is the rate of permeation across the cells (nmol/min), A is the surface area of the filter (1.12 cm^2), and C 0 is the initial concentration in the donor chamber (μM). The efflux ratio of sulfasalazine was calculated by dividing the P app in the basolateral to the apical direction by the P app in the apical to basolateral direction. The TEER for each cell insert was calculated before and after the experiment by multiplying the mean resistance of three measurements by the surface area of the filter (1.12 cm^2). Mass balance was calculated by dividing the […]. All experiments were done in triplicate wells, and the IC50 and Caco-2 permeability assays were repeated three times.

The target in another data set is T1, OATP2B1 (Homo sapiens, UniProt O94956).
T1 construct: expressed in transfected cells; host or cells: HEK293 cells (ATCC) transduced with recombinant OATP2B1 baculovirus
T1 sequence (O94956 1-709): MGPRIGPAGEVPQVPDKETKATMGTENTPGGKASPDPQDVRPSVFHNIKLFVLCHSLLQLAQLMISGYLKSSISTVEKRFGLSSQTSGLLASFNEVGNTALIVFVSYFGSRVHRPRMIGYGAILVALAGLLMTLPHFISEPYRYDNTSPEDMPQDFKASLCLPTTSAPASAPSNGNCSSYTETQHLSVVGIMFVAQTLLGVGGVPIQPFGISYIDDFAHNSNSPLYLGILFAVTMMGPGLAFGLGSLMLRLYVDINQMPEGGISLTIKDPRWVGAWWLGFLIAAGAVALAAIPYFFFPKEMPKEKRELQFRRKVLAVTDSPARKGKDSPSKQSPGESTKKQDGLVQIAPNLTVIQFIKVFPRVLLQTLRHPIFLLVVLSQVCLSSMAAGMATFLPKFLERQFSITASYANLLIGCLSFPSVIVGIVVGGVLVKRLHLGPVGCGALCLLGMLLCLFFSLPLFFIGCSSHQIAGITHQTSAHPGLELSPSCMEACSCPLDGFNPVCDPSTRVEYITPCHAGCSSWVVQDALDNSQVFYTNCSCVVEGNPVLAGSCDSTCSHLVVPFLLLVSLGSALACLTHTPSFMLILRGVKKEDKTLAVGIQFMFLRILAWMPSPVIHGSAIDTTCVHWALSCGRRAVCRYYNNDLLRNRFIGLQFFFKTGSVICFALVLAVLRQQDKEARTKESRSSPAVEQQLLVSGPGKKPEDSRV
The conditions noted are these: previously characterized inhibitors, ref previous studies, cited from earlier work.

Data set [2] deals with Caco-2 cells. Set-up: method as in not given. The conditions noted are these: ref not given; cited from earlier work.
On the set-up of data set [3]: method as in not given. The conditions noted are these: rats; ref not given; cited from earlier work.
In the next data set the target is T2, BCRP (Homo sapiens, UniProt Q9UNQ0).
T2 sequence (Q9UNQ0 1-655): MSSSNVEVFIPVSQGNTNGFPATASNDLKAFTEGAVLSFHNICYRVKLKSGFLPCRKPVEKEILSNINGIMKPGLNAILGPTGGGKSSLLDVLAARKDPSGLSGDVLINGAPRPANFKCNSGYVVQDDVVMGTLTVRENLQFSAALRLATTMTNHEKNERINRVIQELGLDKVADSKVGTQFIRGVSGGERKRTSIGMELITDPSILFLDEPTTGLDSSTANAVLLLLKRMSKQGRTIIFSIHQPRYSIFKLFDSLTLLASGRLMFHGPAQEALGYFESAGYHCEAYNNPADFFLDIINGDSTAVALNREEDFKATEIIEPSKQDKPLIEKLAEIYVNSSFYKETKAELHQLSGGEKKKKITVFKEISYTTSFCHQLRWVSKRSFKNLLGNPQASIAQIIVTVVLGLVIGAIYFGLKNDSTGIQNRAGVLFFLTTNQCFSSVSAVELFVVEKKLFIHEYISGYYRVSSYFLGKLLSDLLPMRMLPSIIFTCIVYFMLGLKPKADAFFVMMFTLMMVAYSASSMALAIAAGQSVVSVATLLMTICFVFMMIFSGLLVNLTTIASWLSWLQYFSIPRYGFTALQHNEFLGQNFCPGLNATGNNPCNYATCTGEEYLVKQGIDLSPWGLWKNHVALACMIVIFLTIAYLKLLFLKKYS
The settings on record: read-out: IC50 (95% CI), BCRP; previously characterized inhibitors; ref previous studies; cited from earlier work.

Consider `COc1ccc(CCC(=O)c2c(O)cc(O[C@@H]3O[C@H](CO)[C@@H](O)[C@H](O)[C@H]3O[C@@H]3O[C@@H](C)[C@H](O)[C@@H](O)[C@H]3O)cc2O)cc1O` [neohesperidin DC], for which the “effect on sulfasalazine permeability (P app)” value with Caco-2 cells [1] is given as “None of the selected food additives showed any effect”. Besides, the IC50 at OATP2B1 (pH 5.5, read-out: IC50, OATP2B1, pH 5.5) is 15.5 µM; at OATP2B1 (pH 7.4, read-out: IC50, OATP2B1, pH 7.4), 48.6 µM; at BCRP it was 0.86 µM. On OATP2B1 (read-out: K i, OATP2B1), the Ki is 20.1 µM. The “P app in Caco-2 cells” value with Caco-2 cells [2] is < 6 × 10^–6 cm/s. In data set [3], the oral bioavailability is reported as around 20%.
